# According to paper PMC11605291 (Frontiers in Pharmacology, 2024):
# Assay: Total radioactivity in plasma and whole blood (LSC), pharmacokinetics and blood-to-plasma ratio
# Format: in vivo, human
# [1] = total radioactivity in plasma, mean ± SD
# Procedure: Six subjects were admitted to the clinical research center 1 day prior to dosing, with random urine and fecal samples collected as blank excretion controls. After fasting overnight for at least 10 h, a blank blood sample was collected after a regular breakfast (449 kcal, with ∼35% energy from fat) on Day 1. […] Scheduled collection of urine, feces, and blood samples, and safety monitoring proceeded until completion.
# Venous blood samples were collected within 0.5 h prior to administration and at 0.5, 1, 1.5, 2, 3, 4, 6, 8, 12, 24, 36, 48, 72, and 96 h after administration. About 8 mL of blood was collected at each time point in the anticoagulant collection tube containing K2-EDTA. The centrifuged plasma was used for non-radioactive and radioactive pharmacokinetic and biotransformation (metabolite) analyses. In addition, about 2 mL of venous blood was collected within 0.5 h before administration and at 1, 4, 8, 12, 24, and 48 h after administration for whole blood radioactivity analysis. Additional 10 mL of venous blood for each time point was collected at 1, 4, 8, 12, 24, and 48 h after administration, and the plasma was obtained by centrifugation for biotransformation (metabolites) analysis. Urine and fecal samples were collected until 144 h (4 subjects) or 192 h (2 subjects) after administration.
# Pharmacokinetic analysis was performed using Phoenix WinNonlin® software version 8.3. […] Descriptive statistics applied to parameters including maximum plasma concentration after administration (Cmax), the time to reach maximum plasma concentration after administration (Tmax), elimination rate constant (λz), area under the plasma concentration-time curve from the time 0 to the time of last quantifiable concentration (AUC0-t, obtained by the linear trapezoidal method), area under the plasma concentration-time curve from time 0 extrapolated to infinity (AUC0-∞, AUC0-∞ = AUC0-t + Ct/λ z ), half-life (t1/2, t1/2 = ln ([Lannutti et al., 2011])/λz), mean residence time (MRT, MRT = AUMC/AUC), apparent clearance (CL/F, CL/F = Dose/AUC0-∞), apparent volume of distribution based on terminal phase (Vz/F, Vz/F = Dose/(λz×AUC0-∞)).
# Radioactivity was measured using an oxidative combustion apparatus and liquid scintillation counter (LSC). After the whole blood sample was vortexed thoroughly, two portions (about 0.5 g each) were weighed into the combustion boat, and after complete combustion by oxidative combustion apparatus, [^14C]carbon dioxide generated from the combustion of the samples was captured by scintillation solution and measured by liquid scintillation counter. After plasma samples were fully vortexed, one portion (approximately 0.5 g) was weighed into a scintillation vial, mixed well with the scintillation solution, and measured using a liquid scintillation counter. […]
compound,measurement,setting,value
C[C@H](Nc1ncnc(N)c1C#N)c1cc2ncc(Cl)n2nc1-c1ccccc1 [Amdizalisib],average plasma total radioactivity concentration at 96 h post dose,still detectable in 4 subjects,4.74 ng Eq./mL
same,AUC0-t of total radioactivity,[1],"3,900 h ng Eq./mL"
same,CL/F of total radioactivity,[1],7.25 L/h
same,Cmax of total radioactivity,[1],368 ng Eq./mL
